Read-outs that look alike come from different tables or passages of the source. Marks after values point to notes of the source that are not given here.
How the values were obtained:
[1] = system: EpiIntestinal microtissues; test: Intestinal first-pass availability in EpiIntestinal microtissues; type: in vitro ADME, human
Description: (§1) Compounds were diluted in culture media to a final concentration of 10 µM and added to the apical (donor) compartment (total volume: 100 µL for EpiIntestinal and 200 µL for Caco-2). After the incubation at 37 °C for 2, 4, 6, and 24 h, samples (50 µL) were taken from the basal (receiver) compartment (total volume: 5000 µL for EpiIntestinal and 800 µL for Caco-2). After the last timepoint, samples from the donor compartments and the cell lysates were also collected. Compound concentrations in the samples were determined by HPLC-MS/MS (Section 2.3).
(§2) GI first-pass availability of the tested compounds was expressed as fraction (%) of the total amount of a compound added to the donor compartment recovered in the receiver compartment.

Caco-2 cells [2] = test: Intestinal first-pass availability in Caco-2; type: in vitro ADME, human; conditions: Caco-2
Description: as §1, §2

[3] = Clinical pharmacokinetic data and calculated Fa × Fg in human; type: in vivo; conditions: calculated from clinical pharmacokinetic data (Section 2.8, Table 2)
Excerpt: A set of 12 marketed drugs are selected for the evaluation of EpiIntestinal microtissues.

[4] = Intestinal first-pass availability in EpiIntestinal microtissues; type: in vitro ADME, human; conditions: human, 10 µM apical
Description: as §1, §2

[5] = human, cited from earlier work
[6] = system: EpiIntestinal microtissues; test: Bidirectional permeability assay in EpiIntestinal microtissues; type: in vitro ADME, human; conditions: Ko-143 3 µM, zosuquidar 5 µM
Description: Caco-2 cells were obtained from Leibniz Institute DSMZ-German Collection of Microorganisms and Cell Cultures (Braunschweig, Germany) and cultured in DMEM containing 10% FCS, 1% NEAA, 2 mM Glutamin, 100 U/mL Penicillin and 100 µg/mL Streptomycin. […] EpiIntestinal microtissues were obtained from MatTek (Bratislav, Slovakia) and cultured according to the manufacturer’s instruction (24-well format for bidirectional permeability assays and GI firstpass availability assays and 96-well format for screening of DME activities).
Bidirectional permeability assays were performed as described previously. […] In indicated experiments, inhibitors were added to both compartments. Cells were incubated with the compounds for up to 2 h. Samples from the opposite compartment were taken at different timepoints. […] Prior to bioanalysis samples were spiked with internal standard solution and diluted with acetonitrile (ACN) for protein precipitation. Measurement was operated in multiple reaction monitoring (MRM) mode. Quantification was performed using external calibration. Apparent permeability coefficients in the apical to basal direction (Papp,AB) and in the basal to apical direction (Papp,BA) and efflux were calculated as follows Papp,AB=QAB/(C0×s×t) Papp,BA=QBA/(C0×s×t) Efflux=Papp,BA/Papp,AB where Q is the amount of compound recovered in the receiver compartment after the incubation time t, C0 the initial compound concentration given to the donor compartment, and s the surface area of the Transwell inserts. Efflux ratio is calculated as the quotient of Papp,BA to Papp,AB. […] In addition, Transepithelial electrical resistance (TEER) values are measured for each plate before the permeability assay and total recovery in donor and receiver compartments was determined for each compound. All these parameters (efflux of apafant, Papp values of the low permeable compound, TEER values, and total recovery) are used to ensure the quality of the assays.

Caco-2 cells [7] = test: Bidirectional permeability assay in Caco-2; type: in vitro ADME, human; conditions: Ko-143 3 µM, zosuquidar 5 µM
CYP3A4 = conditions: Caco-2
Description: For measurements of DME activities in EpiIntestinal microtissues and Caco-2 cells, both were cultured in 96-well Transwell inserts. Drugs (Table 1) were dissolved in the respective solvent at 200x concentration and diluted in a pre-warmed transport buffer. Diluted substrate solution was applied to the apical (100 µL) and basal (250 µL) compartment of the Transwell and incubated at 37 °C and 5% CO2 and 60 rpm continuous shaking. DME activities were determined by monitoring metabolite formation in basal compartment over time (0, 0.5, 1, 2, 3 and 4 h) with LC-MS/MS. […] Chromatographic separation of samples was performed on YMC Triart C18 (1.9 µm, 30 × 2 mm; YMC Europe, Dinslaken, Germany) LC analytical column. Quantification of all metabolites listed in Table 1 was achieved by the use of calibration curves for the individual metabolites with appropriate concentration ranges.
A total of 10 µL of the incubation sample were diluted with 90 µL of water containing 10–20% ACN or methanol, 0.1% formic acid and the respective internal standard. To analyze the intracellular metabolite concentration, cells on Transwell inserts were washed twice with ice-cold PBS and stored at −80 °C for 20 min. Afterwards, 150 µL 50% ACN diluted with transport buffer was added to the cells and incubated at room temperature for 30 min. Cell lysate was transferred to a fresh 96-well plate and centrifuged at 4 °C, 4000 rpm for 10 min. Subsequently, 10 µL of the supernatant were diluted with 90 µl water containing 10–20% ACN or methanol, 0.1% formic acid and the respective internal standard. A total of 2 µL sample was injected into the LC-MS/MS system operated with an electrospray ionization source.

in vitro = conditions: human, plasma
Description: Blood CLb can be converted from plasma clearance CLp with the blood-to-plasma ratio RB: CLb=CLp/RB

[8] = Intestinal first-pass availability in Caco-2; type: in vitro ADME, human; conditions: human, Caco-2, Caco-2, 10 µM apical, read-out: Recovery in basal/receiver compartment after 24 h
Description: as §1, §2

[9] = EpiIntestinal microtissues, GI firstpass availability, read-out: Recovery in Basal Comp. @ 24h (%)
[10] = clinical, ref Prescription information at fda.gov

COc1ccc(CCN2CCC(Nc3nc4ccccc4n3Cc3ccc(F)cc3)CC2)cc1 [Astemizole]
Availability in the receiver compartment on co-incubation with CYP2J2 inhibitor ([1]; 10 µM apical, Ebastein (50 µM)): increased | Availability in the receiver compartment on co-incubation with CYP2J2 inhibitor (Caco-2 cells [2]; 10 µM apical, Ebastein (50 µM)): increased

CC(C)NCC(O)COc1ccc(CC(N)=O)cc1 (stereo not drawn) [Atenolol]
Fa × Fg in Human (%) [3]: 50% | recovery at 24 h, 10 µM [4, 9]: 86%

CC(C)c1c(C(=O)Nc2ccccc2)c(-c2ccccc2)c(-c2ccc(F)cc2)n1CC[C@@H](O)C[C@@H](O)CC(=O)O [Atorvastatin]
recovery at 24 h, 10 µM [4, 9]: 43%

O=C1CC2(CCCC2)CC(=O)N1CCCCN1CCN(c2ncccn2)CC1 [Buspirone]
Fa × Fg in Human (%) [3]: 70% | recovery at 24 h, 10 µM [4, 9]: 60% | CLp (plasma clearance) ([5]; clinical): 28.3 [8] mL/min/kg | fe (fraction of renal excretion) ([5]; clinical): 0.45 [19]

CCOC(=O)C1=C(C)NC(C)=C(C(=O)OC)C1c1cccc(Cl)c1Cl (stereo not drawn) [Felodipine]
recovery at 24 h, 10 µM [4, 9]: 47%

CC(C)(C)NC(=O)[C@@H]1CN(Cc2cccnc2)CCN1C[C@@H](O)C[C@@H](Cc1ccccc1)C(=O)N[C@H]1c2ccccc2C[C@H]1O [Indinavir]
Fa × Fg in Human (%) [3]: 100% | recovery at 24 h, 10 µM [4, 9]: 53% | F (total oral availability) ([5]; clinical): 0.6 [8] | fe (fraction of renal excretion) ([5]; clinical): 0.085 [16]

CCc1c2c(nc3ccc(OC(=O)N4CCC(N5CCCCC5)CC4)cc13)-c1cc3c(c(=O)n1C2)COC(=O)[C@]3(O)CC [Irinotecan]
recovery at 24 h, 10 µM [4, 9]: 62%

COc1ccc2c3c([nH]c2c1)[C@H](CC(C)C)N1C(=O)[C@H](CCC(=O)OC(C)(C)C)NC(=O)[C@@H]1C3 [Ko-143]
Effect of inhibitor on the efflux of rosuvastatin [6]: strongly reduced | Effect of inhibitor on the efflux of rosuvastatin (Caco-2 cells [7]): strongly reduced

Cc1ncc2n1-c1ccc(Cl)cc1C(c1ccccc1F)=NC2 [Midazolam]
Fa × Fg in Human (%) [3]: 59% | Intracellular Metabolite (% of Total) (CYP3A4; CYP3A4/Midazolam, metabolite 1-OH-Midazolam): BLQ | Enzyme Activities Mean/SD (CYP3A4; CYP3A4/Midazolam, rate of 1-OH-Midazolam formation in supernatant): BLQ | blood plasma ratio (in vitro): 0.64 | 1-hydroxymidazolam (CYP3A4-selective metabolite) detected ([1]; midazolam 10 µM apical, no inhibitor): substantial amount | recovery at 24 h, 10 µM ([4]; with CYP3A4 inhibitor CYP3cide (1 µM), read-out: Recovery in basal/receiver compartment after 24 h): 75.9% | recovery at 24 h, 10 µM [4, 9]: 47% | recovery at 24 h, 10 µM ([4]; EpiIntestinal microtissues, no inhibitor, read-out: Recovery in basal/receiver compartment after 24 h): 46.7% | recovery at 24 h, 10 µM ([8]; no inhibitor): 81% | recovery at 24 h, 10 µM ([8]; with CYP3A4 inhibitor CYP3cide (1 µM)): 87.9% | 1-hydroxymidazolam (CYP3A4-selective metabolite) detected (Caco-2 cells [2]; midazolam 10 µM apical): negligible amount | F (total oral availability) ([5]; clinical): 0.4 [8] | fe (fraction of renal excretion) ([5]; clinical): 0 [16]

COC(=O)C1=C(C)NC(C)=C(C(=O)OC)C1c1ccccc1[N+](=O)[O-] [Nifedipine]
fe (fraction of renal excretion) ([5]; in vivo): 0 [16]

CCN(CC)CC#CCOC(=O)C(O)(c1ccccc1)C1CCCCC1 (stereo not drawn) [Oxybutynin]
Fa × Fg in Human (%) [3]: 9% | F (total oral availability) ([5]; clinical): 0.06 [8] | fe (fraction of renal excretion) [5, 10]: 0 * | CLp (plasma clearance) ([5]; in vivo): 5.1 [15] mL/min/kg

CC(C)(C)NC(=O)[C@@H]1C[C@@H]2CCCC[C@@H]2CN1C[C@@H](O)[C@H](Cc1ccccc1)NC(=O)[C@H](CC(N)=O)NC(=O)c1ccc2ccccc2n1 [Saquinavir]
Fa × Fg in Human (%) [3]: 25% | recovery at 24 h, 10 µM [4, 9]: 18% | F (total oral availability) ([5]; clinical): 0.04 [8] | fe (fraction of renal excretion) [5, 10]: 0.01 *

C[C@]12CC[C@H]3[C@@H](CCC4=CC(=O)CC[C@@]43C)[C@@H]1CC[C@@H]2O [Testosterone]
Intracellular Metabolite (% of Total) (CYP3A4; CYP3A4/Testosterone, metabolite 6β-OH-Testosterone): BLQ

O[C@@H](COc1cccc2ncccc12)CN1CCN([C@@H]2c3ccccc3[C@@H]3[C@H](c4ccccc42)C3(F)F)CC1 [zosuquidar]
Effect of inhibitor on the efflux of rosuvastatin [6]: minor effect | Effect of inhibitor on the efflux of rosuvastatin (Caco-2 cells [7]): minor effect
